{"source": "patent US20250326743A1", "about": "“CRYSTAL FORMS OF TRIAZINE DIONE DERIVATIVE AND PREPARATION METHOD THEREFOR” (Jiangsu Hengrui Pharmaceuticals Co., Ltd., priority 2022, published 2025)", "key": {"[1]": {"assay": "Influencing factor stability study (30 days, open flasks)", "format": "physicochemical"}, "[2]": {"assay": "Long-term/accelerated stability study (6 months)", "format": "physicochemical"}, "[3]": {"assay": "DVS (dynamic vapor sorption) hygroscopicity", "format": "physicochemical", "settings": "for hygroscopic weight gain: DVS", "experimental": "DVS refers to dynamic vapor sorption: The measurement was performed using SMS DVS Advantage; at 25° C., the humidity was changed as follows: 50%-95%-0%-95%-50%, in steps of 10% (5% for the last step) (specific humidity ranges are shown in corresponding patterns, and those listed here were used in most cases); the criterion was dm/dt being not greater than 0.002%."}, "[4]": {"assay": "Toxicokinetic evaluation of 14 days of repeated intragastric administration to SD rats", "format": "in vivo", "experimental": "SD rats were used as the test animals. After intragastric administration of the test compounds to the SD rats, the concentrations of the original forms of the compounds in the plasma and the administration solutions were measured by the LC/MS/MS method at different time points.\nTwenty-four SD rats, with an equal number of males and females, were evenly divided into 6 groups, each consisting of 4 rats with an equal number of males and females. The rats were provided by Vital River Laboratory Animal Technology Co., Ltd.\nA certain amount of compound MYK-461 was weighed out, and 0.5% MC was added to prepare a colorless clear solution.\nCompound MYK-461 was administered at doses of 0.5 mg/kg, 1.5 mg/kg, and 3 mg/kg, each with a volume of 10 mL/kg.\n0.2-mL blood samples were collected from the orbit at 0.5 h, 1.0 h, 2.0 h, 4.0 h, 8.0 h, and 24.0 h after administration on day 1, and 0.2-mL blood samples were collected from the orbit before administration and at 0.5 h, 1.0 h, 2.0 h, 4.0 h, 8.0 h, and 24.0 h after administration on day 7 and day 14. The blood samples were placed into EDTA-K2 anticoagulation tubes and centrifuged at 10,000 rpm for 1 min (4° C.), and the plasma was isolated within 1 h and stored at −20° C. before analysis. The procedure starting from the blood collection to the centrifugation was performed under ice-bath conditions. Two hours after administration, food was provided. […]"}, "myosin ATPase": {"target": "T1, myosin ATPase (Bos taurus, UniProt Q9BE39)", "T1 construct": "0.07 μM myosin motor protein SI fragment; purchased Cytoskeleton CS-MYS03 (myosin S1); AD99 (actin)", "T1 sequence (Q9BE39 85-778 limits assumed)": "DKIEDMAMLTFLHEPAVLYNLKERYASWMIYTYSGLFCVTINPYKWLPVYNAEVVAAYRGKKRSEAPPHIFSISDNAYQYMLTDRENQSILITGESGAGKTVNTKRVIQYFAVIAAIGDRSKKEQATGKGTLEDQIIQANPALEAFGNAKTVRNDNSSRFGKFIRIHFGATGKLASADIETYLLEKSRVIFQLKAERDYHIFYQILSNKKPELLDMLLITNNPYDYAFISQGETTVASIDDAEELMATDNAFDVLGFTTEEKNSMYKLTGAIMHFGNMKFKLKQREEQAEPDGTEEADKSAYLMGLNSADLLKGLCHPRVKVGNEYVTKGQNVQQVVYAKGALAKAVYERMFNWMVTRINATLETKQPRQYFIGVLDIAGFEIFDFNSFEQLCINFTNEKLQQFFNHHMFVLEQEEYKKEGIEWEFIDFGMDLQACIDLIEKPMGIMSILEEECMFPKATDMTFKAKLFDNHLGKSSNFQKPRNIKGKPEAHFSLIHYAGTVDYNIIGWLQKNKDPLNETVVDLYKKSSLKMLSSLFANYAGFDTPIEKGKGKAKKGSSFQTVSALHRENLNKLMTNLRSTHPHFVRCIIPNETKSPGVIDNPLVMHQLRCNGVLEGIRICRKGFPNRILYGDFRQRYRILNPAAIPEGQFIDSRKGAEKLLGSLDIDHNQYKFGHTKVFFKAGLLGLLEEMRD", "T1 sequence (P85100 whole entry partner, the tested form may be a part)": "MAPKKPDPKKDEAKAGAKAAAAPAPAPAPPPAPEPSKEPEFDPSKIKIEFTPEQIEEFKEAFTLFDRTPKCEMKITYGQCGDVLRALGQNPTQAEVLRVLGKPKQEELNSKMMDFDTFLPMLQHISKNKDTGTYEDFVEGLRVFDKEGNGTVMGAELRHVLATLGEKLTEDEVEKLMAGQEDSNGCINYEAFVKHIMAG", "settings": "biological evaluation in Application No. WO2022105852; cited from earlier work"}, "[5]": {"settings": "Light exposure (4500 Lux), 5 days"}, "[6]": {"settings": "Light exposure (4500 Lux), 10 days"}, "[7]": {"settings": "Light exposure (4500 Lux), 30 days"}}, "data": [{"smiles": "Cc1ccc(F)c([C@H](C)Nc2nc(=O)n(C3CCOCC3)c(=O)[nH]2)c1", "note": "[crystal form A, (S)-6-((1-(2-fluoro-5-methylphenyl)ethyl)amino)-3-(tetrahydro-2H-pyran-4-yl)-1,3,5-triazine-2,4(1H,3H)-dione]", "values": [{"measurement": "Color and state", "setting": "[1]; 40° C., 5 days", "result": "Off-white solid"}, {"measurement": "Crystal form", "setting": "[1]; 40° C., 5 days", "result": "No change"}, {"measurement": "Purity %", "setting": "[1]; 40° C., 5 days", "result": 99.7, "unit": "%"}, {"measurement": "Color and state", "setting": "[1]; 40° C., 10 days", "result": "Off-white solid"}, {"measurement": "Crystal form", "setting": "[1]; 40° C., 10 days", "result": "No change"}, {"measurement": "Purity %", "setting": "[1]; 40° C., 10 days", "result": 99.7, "unit": "%"}, {"measurement": "Color and state", "setting": "[1]; 40° C., 30 days", "result": "Off-white solid"}, {"measurement": "Crystal form", "setting": "[1]; 40° C., 30 days", "result": "No change"}, {"measurement": "Purity %", "setting": "[1]; 40° C., 30 days", "result": 99.7, "unit": "%"}, {"measurement": "Color and state", "setting": "[1]; 60° C., 5 days", "result": "Off-white solid"}, {"measurement": "Crystal form", "setting": "[1]; 60° C., 5 days", "result": "No change"}, {"measurement": "Purity %", "setting": "[1]; 60° C., 5 days", "result": 99.7, "unit": "%"}, {"measurement": "Color and state", "setting": "[1]; 60° C., 10 days", "result": "Off-white solid"}, {"measurement": "Crystal form", "setting": "[1]; 60° C., 10 days", "result": "No change"}, {"measurement": "Purity %", "setting": "[1]; 60° C., 10 days", "result": 99.7, "unit": "%"}, {"measurement": "Color and state", "setting": "[1]; 60° C., 30 days", "result": "Off-white solid"}, {"measurement": "Crystal form", "setting": "[1]; 60° C., 30 days", "result": "No change"}, {"measurement": "Purity %", "setting": "[1]; 60° C., 30 days", "result": 99.7, "unit": "%"}, {"measurement": "Color and state", "setting": "[1]; 75% RH, 5 days", "result": "Off-white solid"}, {"measurement": "Crystal form", "setting": "[1]; 75% RH, 5 days", "result": "No change"}, {"measurement": "Purity %", "setting": "[1]; 75% RH, 5 days", "result": 99.7, "unit": "%"}, {"measurement": "Color and state", "setting": "[1]; 75% RH, 10 days", "result": "Off-white solid"}, {"measurement": "Crystal form", "setting": "[1]; 75% RH, 10 days", "result": "No change"}, {"measurement": "Purity %", "setting": "[1]; 75% RH, 10 days", "result": 99.7, "unit": "%"}, {"measurement": "Color and state", "setting": "[1]; 75% RH, 30 days", "result": "Off-white solid"}, {"measurement": "Crystal form", "setting": "[1]; 75% RH, 30 days", "result": "No change"}, {"measurement": "Purity %", "setting": "[1]; 75% RH, 30 days", "result": 99.7, "unit": "%"}, {"measurement": "Color and state", "setting": "[1]; 92.5% RH, 5 days", "result": "Off-white solid"}, {"measurement": "Crystal form", "setting": "[1]; 92.5% RH, 5 days", "result": "No change"}, {"measurement": "Purity %", "setting": "[1]; 92.5% RH, 5 days", "result": 99.7, "unit": "%"}, {"measurement": "Color and state", "setting": "[1]; 92.5% RH, 10 days", "result": "Off-white solid"}, {"measurement": "Crystal form", "setting": "[1]; 92.5% RH, 10 days", "result": "No change"}, {"measurement": "Purity %", "setting": "[1]; 92.5% RH, 10 days", "result": 99.7, "unit": "%"}, {"measurement": "Color and state", "setting": "[1]; 92.5% RH, 30 days", "result": "Off-white solid"}, {"measurement": "Crystal form", "setting": "[1]; 92.5% RH, 30 days", "result": "No change"}, {"measurement": "Purity %", "setting": "[1]; 92.5% RH, 30 days", "result": 99.7, "unit": "%"}, {"measurement": "Color and state", "setting": "[1]; Initial, 0 days", "result": "Off-white solid"}, {"measurement": "Purity %", "setting": "[1]; Initial, 0 days", "result": 99.7, "unit": "%"}, {"measurement": "Color and state", "setting": "[1]; [5]", "result": "Off-white solid"}, {"measurement": "Crystal form", "setting": "[1]; [5]", "result": "No change"}, {"measurement": "Purity %", "setting": "[1]; [5]", "result": 99.7, "unit": "%"}, {"measurement": "Color and state", "setting": "[1]; [6]", "result": "Off-white solid"}, {"measurement": "Crystal form", "setting": "[1]; [6]", "result": "No change"}, {"measurement": "Purity %", "setting": "[1]; [6]", "result": 99.7, "unit": "%"}, {"measurement": "Color and state", "setting": "[1]; [7]", "result": "Off-white solid"}, {"measurement": "Crystal form", "setting": "[1]; [7]", "result": "No change"}, {"measurement": "Purity %", "setting": "[1]; [7]", "result": 99.7, "unit": "%"}, {"measurement": "physical and chemical stability (conclusion)", "setting": "[1]; light exposure, 40° C. and 60° C., 75% RH and 92.5% RH, 30 days", "result": "both good physical stability and good chemical stability"}, {"measurement": "physical and chemical stability (conclusion)", "setting": "[2]; 25° C. with 60% RH and 40° C. with 75% RH, 6 months", "result": "both good physical stability and good chemical stability"}, {"measurement": "Crystal form", "setting": "[2]; 25° C./60% RH, 1 month", "result": "No change"}, {"measurement": "Purity %", "setting": "[2]; 25° C./60% RH, 1 month", "result": 99.7, "unit": "%"}, {"measurement": "Crystal form", "setting": "[2]; 25° C./60% RH, 2 months", "result": "No change"}, {"measurement": "Purity %", "setting": "[2]; 25° C./60% RH, 2 months", "result": 99.7, "unit": "%"}, {"measurement": "Crystal form", "setting": "[2]; 25° C./60% RH, 3 months", "result": "No change"}, {"measurement": "Purity %", "setting": "[2]; 25° C./60% RH, 3 months", "result": 99.7, "unit": "%"}, {"measurement": "Crystal form", "setting": "[2]; 25° C./60% RH, 6 months", "result": "No change"}, {"measurement": "Purity %", "setting": "[2]; 25° C./60% RH, 6 months", "result": 99.7, "unit": "%"}, {"measurement": "Crystal form", "setting": "[2]; 40° C./75% RH, 1 month", "result": "No change"}, {"measurement": "Purity %", "setting": "[2]; 40° C./75% RH, 1 month", "result": 99.7, "unit": "%"}, {"measurement": "Crystal form", "setting": "[2]; 40° C./75% RH, 2 months", "result": "No change"}, {"measurement": "Purity %", "setting": "[2]; 40° C./75% RH, 2 months", "result": 99.7, "unit": "%"}, {"measurement": "Crystal form", "setting": "[2]; 40° C./75% RH, 3 months", "result": "No change"}, {"measurement": "Purity %", "setting": "[2]; 40° C./75% RH, 3 months", "result": 99.7, "unit": "%"}, {"measurement": "Crystal form", "setting": "[2]; 40° C./75% RH, 6 months", "result": "No change"}, {"measurement": "Purity %", "setting": "[2]; 40° C./75% RH, 6 months", "result": 99.8, "unit": "%"}, {"measurement": "Purity %", "setting": "[2]; Initial", "result": 99.7, "unit": "%"}, {"measurement": "hygroscopic weight gain", "setting": "[3]; accelerated conditions, 70% RH", "result": "about 0.15%"}, {"measurement": "hygroscopic weight gain", "setting": "[3]; extreme conditions, 90% RH", "result": "about 0.24%"}, {"measurement": "hygroscopic weight gain", "setting": "[3]; normal storage conditions, 60% RH", "result": "about 0.12%"}, {"measurement": "crystal form after DVS testing", "setting": "[3]; after DVS testing", "result": "did not change"}]}, {"smiles": "Cc1ccc(F)c([C@H](C)Nc2nc(=O)n(C3CCOCC3)c(=O)[nH]2)c1", "note": "[(S)-6-((1-(2-Fluoro-5-methylphenyl)ethyl)amino)-3-(tetrahydro-2H-pyran-4-yl)-1,3,5-triazine-2,4(1H,3H)-dione]", "values": [{"measurement": "accumulation in the SD rats", "setting": "[4]", "result": "did not cause significant accumulation"}, {"measurement": "inhibitory effect on myosin ATPase", "setting": "myosin ATPase", "result": "very good inhibitory effect"}]}]}
